Data reported in patent US11414454B2, “Compositions, methods, and systems for affinity-based protein identification and purification” (Auctus Biologies, Inc., priority 2017, dated 2022).
No end group written: not given here.

Experiments:
RPtag (large) resin = assay: Affinity-based precipitation/pull-down with RPtag (large) resin; assay type: binding, Thermoanaerobacter tengcongensis; details: 7 sequential pulldowns, 6 M guanidine hydrochloride washes
Experimental: The disclosed proteins and peptides were used in precipitation/pull-down assays. Specifically, rhodamine was tagged with the RPtag(small) Nd8Cd4 peptide and RPtag(large) was immobilized on a resin, as described above.
Briefly, 100 μL 1000 nM rhodamine labeled RPtag(small) peptide was incubated with 2.5 uL wet settled RPtag (large) resin generated as (as described above) in phosphate buffered saline (PBS; Gibco)+1% BSA+0.005% Tween 20 at 4° C. for 60 min with continuous orbital shaking. Samples were then washed 3× with 500 μL of the same buffer with no peptide to remove unbound peptide. Bound RPtag(small) peptides were then eluted with 100 μL 100 mM glycine pH 1.5+0.005% Tween20, and the pH raised by adding 1 μL 1 M borate pH 10.0. The amount eluted was calculated from the blank subtracted fluorescence of the elution versus the load. After each elution, resin was washed once with 500 μL 6M GdnHCl and once with 500 μL phosphate buffered saline (Gibco)+1% BSA+0.005% Tween 20, before repeating the assay.
Sequential precipitation/pulldown trials were performed with the rhodamine labelled RPtag(small) Nd8Cd4 peptide, and the RPtag(large)-resin. After binding and pull-down, the rhodamine-peptide was eluted in 100 mM glycine pH 1.5, the column was washed with water and 6 M guanidine hydrochloride, and then re-equilibrated with buffer (50 mM Tris pH 8.0, 10 mM EDTA). […]

RPtag (large) = assay: Association/dissociation kinetics of RPtag (small) peptides with RPtag (large) by fluorescence anisotropy; assay type: binding, Thermoanaerobacter tengcongensis; details: for koff: LS dissociation, unlabeled competitor peptide
Procedure, shortened: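 Rhodamine-labeled RPtag small incubated with unlabeled RPtag large; binding followed by fluorescence anisotropy and converted to complex concentration. For dissociation, 1000 nM RPtag large complex chased with 0.1 mM unlabeled native or Nd2,P5A,E18A peptide; koff from initial rates or single-exponential fits, kon derived from koff and Kd.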

[1] = tested on: RPtag large with rhodamine labeled PDGF-β n-terminal peptide; assay: Competition of RPtag large / PDGF-β n-terminal peptide binding by unlabeled peptide; details: 1 uM RPtag large, 1 uM labeled PDGF-β peptide, unlabeled competitor
Experimental: An initial Kd was measured between RPtag(large) and the PDGF-β N-terminal peptide (FIG. 16). […] Next, competition experiments were performed using the mutant RPtag(small) peptide Nd2,P5A,E18A.
The direct binding (left) and competition studies (right) presented in FIG. 16 were performed as follows. The indicated concentration of RPtag large was incubated with 20 nM rhodamine labeled PDGF-β n-terminal peptide for 1 h at room temperature, and the fluorescence anisotropy was measured. The curves were fit with the equation f=y0+(ymax−y0)*(Ptot+x+Kd−sqrt((Ptot+x+Kd)^2−4*Ptot*x))/(2*Ptot), where y0 is the baseline anisotropy, ymax is the maximum anisotropy, Ptot is the fixed concentration of labeled peptide used, x is the variable concentration of protein used, and Kd is the measured Kd. […] The curves were fit empirically to a 4 parameter logistic regression. In both cases, the buffer was 50 mM Tris pH 8.0, 0.005% Tween20. Curves were fit in […] each, and the data was averaged for display. Points are mean±SEM (n=3).

| Sequence | binding capacity over sequential pulldowns (RPtag (large) resin) | koff (RPtag (large)) [s⁻¹] | binding/unbinding kinetics (RPtag (large); instrument dead time ~1 min) | disruption of RPtag(large) binding to PDGF-β N-terminal peptide [1] | kf (RPtag (large); S to S* forward rate constant) [min⁻¹] | kr (RPtag (large); S* to S reverse rate constant, calculated from Keq and kf) [min⁻¹] | kon (M^−1 min^−1 ) (×10^7) (RPtag (large); S*-LS transition, calculated from measured koff and Kd) |
| --- | --- | --- | --- | --- | --- | --- | --- |
| PAELKLITK [Nd8, Cd4, PAELKLITK] | little to no loss of binding capacity | >0.033 | completed within the dead time | – | – | – | – |
| KIANFIPAELKLITKANVQ [Nd2, p5a, e18a, KIANFIPAELKLITKANVQ] | – | 0.000217 ± 1.7e-05 | – | could be disrupted | 0.051 ± 0.001 | 0.19 ± 0.02 | 28 ± 2 ×10^7 M^−1 min^−1 |
